Source: patent US20180203025A1, “HDL THERAPY MARKERS” (Cerenis Therapeutics Holding SA, priority 2014, published 2018)

How the values were obtained:
[1] = test system: LXR mRNA in mouse macrophages (J774); experiment: LXR gene expression (real-time PCR) in J774 macrophages; format: cell-based; settings: Study P; 0.03 to 30 mM; 6 hours
Protocol: The mRNA regulation of those genes expressing ABCA1, ABCG1 and SR-BI is linked to nuclear proteins as LXR, SREBP1 and SREBP2. […] Gene expression was assayed using the protocols described in Sections 8.3.2 (RNA extraction); 8.3.4 (reverse transcription), and 8.3.5 (qPCR). SREBP-1, SREBP-2 and LXR gene expression levels were determined with Taqman probe (Mm01138344.m1, Mm01306292.m1, Mm00443451.m1 respectively) according to the manufacturer's protocol. The reference gene used is HPRT1 (Taqman probe: Mm00446968.m1).
This study used β-cyclodextrin to examine the effect of β-cyclodextrin on LXR, SREBP1 and SREBP2 mRNA expression in J774 macrophages. J774 were seeded on 6 well plates (300,000 cells/well). β-cyclodextrin (0.03, 0.1, 0.3, 1, 3, 10 and 30 mM) was added for 6 hours on the macrophages and the RNA were extracted with the RiboPure™ kit according to the manufacturer's protocol. Gene expression was assayed using the protocols described in Sections 8.3.2 (RNA extraction); 8.3.4 (reverse transcription), and 8.3.5 (qPCR). SREBP-1, SREBP-2 and LXR gene expression were determined with Taqman probe (Mm01138344.m1, Mm01306292.m1, Mm00443451.m1 respectively) according to the manufacturer's protocol. The reference gene used is HPRT1 (Taqman probe: Mm00446968.m1).

[2] = test system: ABCA1 in mouse ligatured carotids; experiment: Western blot of ABCA1 expression in ligatured carotids; format: in vivo
Protocol: Ligatured carotids previously extracted with chloroform:methanol were solubilized in NAOH 0.1N (100 μL/carotid). The solution was briefly sonicated and centrifuged at 15,000×g for 10 minutes. The protein concentration was determined with Bradford assay and 40 μg of sample were loaded on SDS-PAGE. The ABCA1 expression (ab7360—dilution 1/1000) was quantified using imageJ® software.

[3] = Cholesterol content in mouse feces; format: in vivo
Protocol: The left and right carotids, the liver, the spleen and the aortas connected to the heart were removed and stored at −80° C. The liver was collected in four different aliquots. The remaining biological specimens were discarded after the organ collection. For feces collection, the day of the last injection for each group, the cage was changed with a new litter and feces were collected for 24 hours (day of sacrifice).
Feces were lipid extracted and analyzed by HPLC for their cholesterol content. Feces (200 mg) were solubilized in methanol:water (50:50) solution and mixed for 1 minute with Turrax®. The solution was frozen and lyophilized overnight. The following day, 4 mL of chloroform/methanol (2:1) was added and the solution was mixed for 24 hours at 4° C. To this was added water (1.33 mL), and the solution was then mixed and centrifuged for three minutes at 3700×g. The organic phase was saved and dried. The pellet was solubilized in absolute ethanol (2 mL), and filtered on cartridge AC 0.2 μm. The cholesterol concentration in the sample was analyzed according to the method of Section 9.2.7.

[4] = Plasma human ApoA-I by ELISA in apoE−/− mice; format: in vivo, mouse
Protocol: This study examined the kinetics of the CER-001 infusion by determining the concentration of human ApoA-I in the plasma after infusion of CER-001. The ApoA-I concentration in plasma was determined by ELISA (Assay Pro EA5201-1) following manufacturer instructions.

[5] = test system: SR-BI mRNA in HepG2 (human hepatocytes); experiment: SR-BI mRNA in HepG2 hepatocytes; format: cell-based; settings: Study K, 0.25, 25 and 250 μg/mL, 6 hours
Protocol: HepG2 (human hepatocytes) and Hepa1-6 (mouse hepatocytes) were seeded on 6 well plates (300,000 cells/well) in DMEM 10% FCS. […] Gene expression was assayed using the protocols described in Sections 8.3.2 (RNA extraction); 8.3.4 (reverse transcription), and 8.3.5 (qPCR). ABCA1 (Taqman probe Hs01059118.m1 and Mm00442646.m1 for respectively HepG2 and Hepa1-6) and SR-BI (Taqman probe Hs00969821.m1 and Mm00450234.m1 for respectively HepG2 and Hepa1-6) expression was determined according to the manufacturer's protocol. The reference gene used is HPRT1 (Taqman probe: Mm00446968.m1) for Hepa1-6 and GAPDH (Taqman probe: Hs03929097.g1) for HepG2 cells.

| Compound | LXR mRNA [1] | carotid ABCA1 expression ([2]; 5 mg/kg) | carotid ABCA1 content ([2]; 50 mg/kg) | feces cholesterol content ([3]; feces collected 24 hours after last injection) | concentration of maximum cholesterol excretion ([3]; mouse, in vivo) | human ApoA-I plasma concentration ([4]; 2-50 mg/kg) | human plasma ApoA-I relative to expected doses ([4]; mouse, in vivo) | SR-BI mRNA level [5] |
| --- | --- | --- | --- | --- | --- | --- | --- | --- |
| OC[C@H]1O[C@@H]2O[C@H]3[C@H](O)[C@@H](O)[C@@H](O[C@H]4[C@H](O)[C@@H](O)[C@@H](O[C@H]5[C@H](O)[C@@H](O)[C@@H](O[C@H]6[C@H](O)[C@@H](O)[C@@H](O[C@H]7[C@H](O)[C@@H](O)[C@@H](O[C@H]8[C@H](O)[C@@H](O)[C@@H](O[C@H]1[C@H](O)[C@H]2O)O[C@@H]8CO)O[C@@H]7CO)O[C@@H]6CO)O[C@@H]5CO)O[C@@H]4CO)O[C@@H]3CO [β-cyclodextrin, reference compound] | No significant changes | – | – | – | – | – | – | – |
| CER-001: engineered recombinant human apolipoprotein A-I HDL with sphingomyelin and DPPG; protein-to-phospholipid ratio 1:2.7, 97% Sph and 3% DPPG | – | did not affect the ABCA1 expression | decrease | dose-dependent increase | 10 mg/kg | dose-dependent increase | expected doses of ApoA-I in plasma were retrieved | No significant decrease |
